The results in this text go back to patent US20190159449A1, “USE OF NON-PROLINE CYCLIC AMINO ACIDS TO INCREASE THE TOLERANCE OF PLANTS TO CONDITIONS OF OSMOTIC STRESS” (CONSEJO SUPERIOR DE INVESTIGACIONES CIENTÍFICAS (CSIC), priority 2016, published 2019).

Marks after values point to notes of the source that are not given here.

Format in all cases: in vivo
One data set relates to Arabidopsis thaliana. The data set is described as follows: Salt stress (50 mM NaCl) growth assay of hydroponically grown Arabidopsis thaliana after 24 h root treatment. As to conditions: for S.I (sensitivity index) / % reduction RGR / Fresh weight / RGR (relative growth rate): 2.5 mM treatment 24 h; for S.I (sensitivity index) / % reduction RGR: 7 days with 50 mM NaCl; for S.I (sensitivity index): S.I = DWs − DWc/DWc; for % reduction RGR: relative to control conditions; for Fresh weight: aerial part; for Effect on growth and tolerance to salt stress (in words): 2.5 mM treatment, 50 mM NaCl. The procedure:
The conditions described below were used as the base for all examples included below. The growing conditions, such as the nutrient solution and the substrate used have been optimized to perform this type of experiments. Likewise, the dose of NaCl used has been optimized for this type of experiments since 50 mM makes it possible to evaluate if a treatment is capable of increasing tolerance to salinity (Jiménez-Arias et al., 2015. Environmental and Experimental Botany 120, 23-30).
A hydroponic culture system was used for the cultivation of the Arabidopsis thaliana plants necessary for the assays. This system was established in hydroponics trays with 1.9 L capacity (Araponics®) wherein 18 plants were grown per container. A mixture of river sand with two different granulometries was used as physical substrate. The seeds were sowed in seed-holders, which were deposited during one week in a small greenhouse consisting of a high-density polyethylene tray with river sand (washed siliceous sand, with medium granulometry) with sterile distilled water covered with a transparent plastic sheet which was deposited in a growth chamber at 22±2° C., with a photoperiod of 16 hours of light (100-110 μmol m-2 s-1 of PAR) and with 100% relative humidity. After one week, the seed-holders with the seedlings were transferred to the hydroponics trays in the same photoperiod and light intensity conditions but with 60-70% of relative humidity. The seedlings were maintained without aeration during the first week, after this the solution (Table 1) was generously aerated using aeration pumps and was renewed every 7 days.
In this way, 21-day old plants were treated during 24 hours in nutrient solution enriched with a concentration of 2.5 mM of alanine. Subsequently, the plants were deposited in normal nutrient solution for 24 hours and they later grew for 7 days in nutrient solution with or without a supply of 50 mM of NaCl. This experiment was repeated twice, using 12 plants per experiment, with the value shown in table 2 being the average of 24 plants for each one of the conditions.
Subsequently, the wet weight of the aerial part of the plants was determined.
21-day old plants were treated during 24 hours in nutrient solution enriched with a concentration of 2.5 mM of pyroglutamic acid or pipecolinic acid. Subsequently, the plants were deposited in normal nutrient solution for 24 hours and they later grew for 7 days in nutrient solution with or without a supply of 50 mM of NaCl. This experiment was repeated twice, using 12 plants per experiment, with the value shown in table 2 being the average of 24 plants for each one of the conditions.
The plants were deposited in nutrient solution enriched with one of the compounds indicated above for 24 hours and they later grew for 7 days in nutrient solution with a supply of 50 mM of NaCl. As control, the plants grown on nutrient solution and NaCl were used. This experiment was repeated twice, using 12 plants per experiment, with the value shown in table 2 being the average of 24 plants for each one of the conditions.
Two measurements were used in order to illustrate the defence to salt stress. First, the values for the sensitivity index (S.I) described by Saadallah et al. (2001, Agronomie 21, 627-634) is shown.
The greater the negative value of the S.I., the greater the negative effect of salinity on the plant. The second measurement is a percentage of reduction in the relative a growth rate of the plant subjected to conditions of salt stress.

Data set [1] relates to Solanum lycopersicum (tomato). The data set is described as follows: Salt stress growth assay of hydroponic tomato plants after 24 h root treatment. Conditions: 2.5 mM; for Decrease in growth in saline conditions with respect to growth in the control solution: 7 days in NaCl solution, fresh weight; for Increase in tolerance compared with the proline treatment / Increase in tolerance compared with the control: saline conditions; for Increase in tolerance compared with the proline treatment: versus proline 2.5 mM; for Increase in tolerance compared with the control: versus reference group. The procedure: As an example, tomato (Solanum lycopersicum) of the variety Realeza pear was used. […] From the first day, the solution was generously aerated by air pumps (30 min per day). The plants were maintained during two days with this proportion of solution and distilled water, and then they were removed from the medium and placed, under the same conditions, in plastic containers during 24 hours with the different treatments in distilled water (table 5): After 24 hours, the plants were again introduced in the trays with the same proportion of distilled water/nutrient solution stated above and they were maintained like this for 48 hours. […] Then, the growth of treated and untreated plants was compared, in normal conditions and salinity conditions. For the statistical analysis, the data collected was subjected to the normality test of the Kolmogorov-Smirnov test with the Lilliefors correction. Levene's test was used to verify the homoscedasticity of the data. As the data behaved following a normal distribution, its measurements were compared by one-way ANOVA and the significant differences were calculated using the Bonferroni post hoc test. The statistical analyses were performed with the SSPS computer package, version 20 for Windows.

Data set [2] deals with Solanum lycopersicum (tomato). The data set is described as follows: Drought (water deficit) assay of tomato in greenhouse conditions. As to conditions: four root treatments at 2.5 mM, after 10 days of drought; for Net photosynthesis: versus drought reference. The procedure:
The crop used was tomato (Solanum lycopersicum) of the “Gransol” capa negra variety. The experiment was performed in a glass greenhouse with four tables measuring 10 metres in length by 2 metres in width. Drip irrigation was used, supplied by self-compensated drippers to control the flow of water at all times.
5-week old seedings were transplanted to 2-litre capacity pots using a mixture of peat and river sand to facilitate drainage. In total, 120 tomato plants were used. Four treatments were performed on 40 plants after the transplant (with 15 days between each treatment), adding 50 ml of a 2.5 mM concentration of Pyroglutamic to each pot.
Another 40 plants were treated via root applications using 2.5 mM of pipecolinic acid. The remaining plants randomly distributed throughout the greenhouse were treated with distilled water by way of control. The drought assay commenced on completing the four treatments, which was performed by removing the dripper from the 20 plants randomly chosen for each one of the treatments. The plants were deprived of water for 10 days.
The relative water content of the leaf was estimated after 10 days of drought for each one of the treatments, in control conditions and drought conditions, using 15 leaves. The following formula was used for this:
R.W.C(%)/=[(Fw−Dw)/(Tw−Dw)]×100
With Fw: fresh weight; Dw: dry weight; Tw: turgor weight. RWC is the measurement most commonly used to estimate the possible water deficit a plant leaf has.
Furthermore, photosynthesis was estimated with the “Lc-pro sd” system (ADC Bioscientific). To do this, the tomato leaves were stimulated with a light source at 1000 μmol m-2 s-1, with this light intensity being previously estimated to achieve the maximum photosynthesis in our crop and conditions. To do this, the parameters of net photosynthesis (A) and evapotranspiration (E) were determined, calculating with them the efficiency in water use (A/E) as described by Lambers et al. (2008. Plant Physiological Ecology. 2nd edition. Springer, New York). The measurements were taken after 10 days of assay from six plants for each one of the treatments.
The data of the different variables were subjected to the normality test using the Kolmogorov-Smirnov test with the Lilliefors correction. Levene's test was used to verify the homoscedasticity of the data. As the data behaved following a normal distribution, its measurements were compared by one-way ANOVA and the significant differences were calculated using the Bonferroni post hoc test. The statistical analyses were performed with the SSPS computer package, version 20 for Windows.

The mark [3] stands for this setting: 7 days in nutrient solution with 50 mM NaCl (saline conditions).
[4] abbreviates: 7 days in nutrient solution without NaCl (optimal conditions).
The mark [5] stands for this setting: 7 days with 50 mM NaCl (saline conditions).
The mark [6] stands for this setting: 7 days without NaCl (optimal conditions).

Take `O=C(O)[C@@H]1C[C@@H](O)CN1` [Hydroxyproline, hydroxyproline, reference compound]: in the data set with Arabidopsis thaliana, the “S.I (sensitivity index)” value is reported as −0.25** and the “% reduction RGR” value was 24.34** %. In addition, the “Decrease in growth in saline conditions with respect to growth in the control solution” value (shortened to “Decrease in growth in saline conditions”) in data set [1] is reported as 17%. The “Decrease in growth under control conditions with respect to the reference” value in data set [1] (7 days, control solution without salt, plant weight) amounted to 35%.

For `O=C(O)C1CCCCN1` (stereo not shown) [Pipecolinic acid, pipecolinic acid], the Fresh weight in the data set with Arabidopsis thaliana (setting [3]) came out at 133.9 ± 21 mg plant. In addition, the Fresh weight in the data set on Arabidopsis thaliana (setting [4]) is on record as 145.9 ± 22 mg plant. Also, the “RGR (relative growth rate)” value in the data set on Arabidopsis thaliana (setting [5]) turned out to be 0.45. In addition, in the data set with Arabidopsis thaliana, the “S.I (sensitivity index)” value is recorded as −0.07**; the “% reduction RGR” value was 8.12** %; the “Effect on growth and tolerance to salt stress (in words)” value (shortened to “Effect on growth and tolerance”) is “effect on the increased tolerance to salt stress is proven”. Besides, the “RGR (relative growth rate)” value with Arabidopsis thaliana (setting [6]) was found to be 0.46. Besides, in data set [1], the “Decrease in growth in saline conditions” value worked out at 7%, the “Increase in tolerance compared with the proline treatment” value is listed as 83% and the “Increase in tolerance compared with the control” value is reported as 78%. Moreover, in data set [2], the “Decrease in relative water content of the leaf with respect to its control” value worked out at 5.1% and the Net photosynthesis result was “greater than the drought reference plants”.

In the case of `C[C@H](N)C(=O)O` [Alanine, alanine, reference compound], the Fresh weight stood at 36 ± 2 mg plant with Arabidopsis thaliana (setting [3]) and 142 ± 8 mg plant in the data set with Arabidopsis thaliana (setting [4]). Moreover, the “RGR (relative growth rate)” value with Arabidopsis thaliana (setting [5]) is on record as 0.11**; in the data set with Arabidopsis thaliana (setting [6]) it was 0.58. In addition, in the data set on Arabidopsis thaliana, the “Effect on growth and tolerance” value was “not capable of promoting growth, nor increasing tolerance to salinity”.

For the molecule `O=C1CC[C@@H](C(=O)O)N1` [Pyroglutamic acid, pyroglutamic acid], in the data set on Arabidopsis thaliana (setting [3]), the Fresh weight is listed as 170.4 ± 15 mg plant. Moreover, the Fresh weight in the data set on Arabidopsis thaliana (setting [4]) amounted to 183.9 ± 15 mg plant. The “RGR (relative growth rate)” value in the data set on Arabidopsis thaliana (setting [5]) came out at 0.49. Further, in the data set with Arabidopsis thaliana, the “S.I (sensitivity index)” value is −0.1**; the “% reduction RGR” value was 10.22** %; the “Effect on growth and tolerance” value is given as “effect on the increased tolerance to salt stress is proven”. Besides, in the data set with Arabidopsis thaliana (setting [6]), the “RGR (relative growth rate)” value is 0.56. In addition, in data set [1], the “Decrease in growth in saline conditions” value was 9%, the “Increase in tolerance compared with the proline treatment” value is listed as 78% and the “Increase in tolerance compared with the control” value is 72%. Besides, in data set [2], the “Decrease in relative water content of the leaf with respect to its control” value is given as “did not show this decrease” and the Net photosynthesis result is “greater than the drought reference plants”.

As for `O=C(O)[C@@H]1CCCN1` [Proline, proline], the “Decrease in growth in saline conditions” value in data set [1] turned out to be 42%.
